How the values were obtained:
Assay in all cases: relative viability (nuclei count vs DMSO), 5 days (fraction); higher = more cells survive
[1] = compound: COc1cc(Nc2ncc3c(n2)-c2ccc(Cl)cc2C(c2c(F)cccc2OC)=NC3)ccc1C(=O)O [Alisertib] + NC(=O)Nc1cc(-c2cccc(F)c2)sc1C(=O)N[C@H]1CCCNC1 [AZD7762] (partner 0.2 µM)
Procedure, shortened: (§1)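 Lung cancer cell lines were seeded in 1536-well plates and dosed by pin tool the next day, with either a single drug or a fixed anchor-drug dose combined with five library-drug doses (not always all listed) spaced in √10 steps. Five days later, one step fixed the cells and stained their nuclei (final 0.05% Triton X-100, 1% formaldehyde, 1 ug/ml Hoechst), and nuclei were counted on 4× images. Relative viability is the nuclei count in treated wells divided by the count in vehicle wells, and each value is the median of duplicate plates.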

[2] = compound: COc1cc(Nc2ncc3c(n2)-c2ccc(Cl)cc2C(c2c(F)cccc2OC)=NC3)ccc1C(=O)O [Alisertib] + CS(=O)(=O)CCNCc1ccc(-c2ccc3ncnc(Nc4ccc(OCc5cccc(F)c5)c(Cl)c4)c3c2)o1 [Lapatinib] (partner 2 µM)
Procedure, shortened: as §1

[3] = compound: COc1cc(Nc2ncc3c(n2)-c2ccc(Cl)cc2C(c2c(F)cccc2OC)=NC3)ccc1C(=O)O [Alisertib] + Nc1ncn([C@H]2C[C@H](O)[C@@H](CO)O2)c(=O)n1 [Decitabine] (partner 2 µM)
Procedure, shortened: as §1

[4] = compound: COc1cc(Nc2ncc3c(n2)-c2ccc(Cl)cc2C(c2c(F)cccc2OC)=NC3)ccc1C(=O)O [Alisertib] + CC(C)C[C@H](NC(=O)[C@H](Cc1ccccc1)NC(=O)c1cnccn1)B(O)O [Bortezomib] (partner 0.002 µM)
Procedure, shortened: as §1

Cell Line	relative viability ([1]; first compound 0.005 µM)	relative viability ([1]; first compound 0.01581 µM)	relative viability ([1]; first compound 0.05 µM)	relative viability ([1]; first compound 0.1581 µM)	relative viability ([1]; first compound 0.5 µM)	relative viability ([2]; first compound 0.005 µM)	relative viability ([2]; first compound 0.01581 µM)	relative viability ([2]; first compound 0.05 µM)	relative viability ([2]; first compound 0.1581 µM)	relative viability ([2]; first compound 0.5 µM)	relative viability ([3]; first compound 0.005 µM)	relative viability ([3]; first compound 0.01581 µM)	relative viability ([3]; first compound 0.05 µM)	relative viability ([3]; first compound 0.1581 µM)	relative viability ([3]; first compound 0.5 µM)	relative viability ([4]; first compound 0.005 µM)	relative viability ([4]; first compound 0.01581 µM)	relative viability ([4]; first compound 0.05 µM)	relative viability ([4]; first compound 0.1581 µM)	relative viability ([4]; first compound 0.5 µM)
NCI-H3122	0.973	0.78	0.776	0.259	0.203	1.01	0.999	0.899	0.433	0.307	0.376	0.412	0.375	0.192	0.161	0.987	1.04	0.865	0.47	0.308
PC-3 [JPC-3]	0.649	0.778	0.705	0.403	0.317	0.453	0.441	0.441	0.374	0.329	0.829	0.822	0.661	0.62	0.51	0.796	0.828	0.775	0.539	0.39
PC-14	0.226	0.38	0.272	0.0966	0.0539	0.402	0.31	0.329	0.184	0.099	0.173	0.187	0.154	0.057	0.0492	0.876	0.732	0.515	0.208	0.0801
RERF-LC-KJ	0.798	0.799	0.801	0.236	0.214	0.844	0.713	0.673	0.318	0.201	0.731	0.443	0.258	0.173	0.247	0.945	1.05	0.879	0.293	0.304

Source: the supplement of paper PMC10307832
